In patent US11679102B2, “Method for inhibiting virus infection and replication” (Chang Gung University, priority 2020, dated 2023):

Key:
RD cells = test: Lipid peroxidation (BODIPY 581/591-C11, flow cytometry) in RSL3-treated RD cells pretreated with ferroptosis inhibitors
Experimental: (§1) Next, the treated cells and the infected cells were stained by incubating with 1 μM BODIPY™ 581/591-C11 (Invitrogen) at 37° C. for 30 minutes, and then collected using trypsin (Gibco). Thereafter, the stained cells were subjected to centrifugation at 300 g for 10 minutes to remove trypsin and the cell culture media, and then resuspended in 500 μL of fresh PBS. Subsequently, at least 10000 cells per sample were subjected to flow cytometry analysis using Attune NxT flow cytometer (Invitrogen), and FlowJo software was used for viewing and analyzing the thus obtained data. The BODIPY™ 581/591-C11 levels in the control groups (i.e., DMSO-treated cells and mock-infected cells) were set as 100%.
Wild-type RD cells were seeded in 12-well plates at a concentration of 1×10^5 cells per well. […] Subsequently, the pretreated cells were treated with 1 μM of RSL3 for 36 hours, or the same amount of DMSO serving as control group for comparison purpose.
Thereafter, these cells were subjected to staining with BODIPY™ 581/591-C11 (Invitrogen) and flow cytometry analysis according to the experimental procedures as described in the preceding sub-section, entitled “A. Determining lipid peroxidation level in virus-infected cells,” of this Example. The BODIPY™ 581/591-C11 levels in the control groups (i.e., DMSO-treated cells and mock-infected cells) were set as 100%.

[1] = tested on: RD-sgACSL4^+/+ and RD-sgACSL4^−/− cells; test: Lipid peroxidation (BODIPY 581/591-C11) in RSL3-treated RD-sgACSL4+/+ control and RD-sgACSL4−/− knockout cells; conditions: 1 μM RSL3, 36 hours, FIG. 9 upper panel
Experimental: Specifically, the RD-sgACSL4^−/− knockout and RD-sgACSL4^+/+ control cells were seeded in 12-well plates at a concentration of 1×10^5 cells per well.
as §1

CV-A6 [2] = format: cell-based, Coxsackie virus A6; conditions: pretreated 1 hour with ferrostatin-1 100 μM or troglitazone 20 μM; m.o.i. 0.01; 24, 36, 48 h.p.i.; FIG. 14
CV-A6-infected RD cells = format: cell-based, human; conditions: wild-type RD cells pretreated 1 hour with ferrostatin-1 100 μM or troglitazone 20 μM, then CV-A6 m.o.i. 0.01 for 36 hours; vs mock-infected; FIG. 11 lower panel
CV-A6 [3] = format: cell-based, Coxsackie virus A6; conditions: pretreated 1 hour at 0-120 μM, CV-A6 m.o.i. 0.01, 36 h.p.i.; FIG. 12
HCoV-OC43 = test: Virus titer of HCoV-OC43 in infected Vero E6 cells (viral plaque assay); conditions: pretreated 1 hour with ferrostatin-1 40 μM or troglitazone 10 μM; m.o.i. 0.01; 1, 2, 3 d.p.i.; FIG. 15 lower panel
HCoV-229E [4] = test: Virus titer of HCoV-229E in infected LLC-MK2 cells (viral plaque assay); conditions: pretreated 1 hour with ferrostatin-1 40 μM or troglitazone 10 μM; m.o.i. 0.01; 1, 2, 3 d.p.i.; FIG. 15 upper panel
HCoV-229E [5] = test: Cell viability of HCoV-229E-infected LLC-MK2 cells (CellTiter96 Aqueous One Solution); format: cell-based, human coronavirus 229E; conditions: pretreated 1 hour at 0-120 μM, HCoV-229E m.o.i. 0.01, 7 d.p.i.; FIG. 13
Experimental: Wild-type RD cells and LLC-MK2 cells were seeded at a concentration of 2000 cells per well into respective wells of 96-well plates containing DMEM and 10% FBS. […] Mock-infected RD and LLC-MK2 cells served as control groups. CV-A6-infected and mock-infected RD cells, and HCoV-229E-infected and mock-infected LLC-MK2 cells were subjected to cell viability determination using CellTiter96 Aqueous One Solution Cell Proliferation Assay (Promega).

For `COC(=O)c1ccc([C@@H]2c3[nH]c4ccccc4c3C[C@@H](C(=O)OC)N2C(=O)CCl)cc1` [RSL3], the “Lipid peroxidation level in RSL3-treated cells compared with DMSO-treated cells” value (RD cells; wild-type RD cells, 1 μM RSL3, 36 hours, FIG. 11) was “significant increase”, the “Induction of lipid peroxidation in cells with normal ACSL4 expression” value ([1]; RD-sgACSL4^+/+ control cells) was “effectively induce lipid peroxidation” and the “Induction of lipid peroxidation in ACSL4 knockout cells” value ([1]; RD-sgACSL4^−/− knockout cells) was “unable to induce lipid peroxidation”.
With `CCOC(=O)c1ccc(NC2CCCCC2)c(N)c1` [ferrostatin-1] the “Viral yields (virus titer) of CV-A6 in infected RD cells vs DMSO control group” value (CV-A6 [2]) was “significantly lower”, the “CV-A6-induced increase in lipid peroxidation level (relative BODIPY 581/591-C11 level)” value (CV-A6-infected RD cells) was “significantly diminished” and the “RSL3-induced increase in lipid peroxidation level (relative BODIPY 581/591-C11 level)” value (RD cells; wild-type RD cells pretreated 1 hour with ferrostatin-1 100 μM or troglitazone 20 μM, then 1 μM RSL3 for 36 hours, vs DMSO control, FIG. 11 upper panel) was “significantly diminished”. For the same molecule, the “Cell viability of CV-A6-infected RD cells” value (CV-A6 [3]) was “increasing cell viability”, the “Viral yields (virus titer) of HCoV-OC43 in infected Vero E6 cells vs DMSO control group” value (HCoV-OC43) was “significantly lower” and the “Viral yields (virus titer) of HCoV-229E in infected LLC-MK2 cells vs DMSO control group” value (HCoV-229E [4]) was “significantly lower”. The “Cell viability of HCoV-229E-infected LLC-MK2 cells” value (HCoV-229E [5]) was “increasing cell viability”.
